According to patent publication US12655116B2, “Substituted isophthalic acid diamides” (Bayer Aktiengesellschaft, priority 2020, dated 2026):

Legend:
ALOMY [1] = experiment: Pre-emergence herbicidal action against ALOMY; assay type: in vivo, Alopecurus myosuroides
Method in brief: (§1)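 Seeds sown in sandy loam, soil-covered; compound sprayed on soil surface pre-emergence. Application: WP/EC, 600–800 l/ha, 0.2% wetting agent. Readout: visual % damage at 3 weeks.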

AVEFA = experiment: Pre-emergence herbicidal action against AVEFA; assay type: in vivo, Avena fatua
Method in brief: as §1

VERPE [2] = experiment: Post-emergence herbicidal action against VERPE; assay type: in vivo, Veronica persica
Method in brief: (§2)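 Sandy loam, greenhouse; treatment 2–3 weeks after sowing, one-leaf stage. Aqueous suspension or emulsion from WP/EC sprayed on foliage (600–800 l/ha, 0.2% wetting agent). Readout: visual % action, ~3 weeks.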

ECHCG [3] = experiment: Pre-emergence herbicidal action against ECHCG; assay type: in vivo, Echinochloa crus-galli; details: 80 g/ha
Method in brief: as §1

MATIN [4] = experiment: Pre-emergence herbicidal action against MATIN; assay type: in vivo, Matricaria inodora
Method in brief: as §1

ALOMY [5] = experiment: Post-emergence herbicidal action against ALOMY; assay type: in vivo, Alopecurus myosuroides; details: dosage 20 g/ha, visual assessment about 3 weeks after treatment vs untreated controls
Method in brief: as §2

SETVI [6] = experiment: Post-emergence herbicidal action against SETVI; assay type: in vivo, Setaria viridis
Method in brief: as §2

POLCO = experiment: Pre-emergence herbicidal action against POLCO; assay type: in vivo, Polygonum convolvulus; details: dosage 80 g/ha
Method in brief: as §1

AMARE [7] = experiment: Post-emergence herbicidal action against AMARE; assay type: in vivo, Amaranthus retroflexus; details: 20 g/ha, visual assessment about 3 weeks after treatment, 100% = plants have died, 0% = like control plants
Method in brief: as §2

PHBPU [8] = experiment: Pre-emergence herbicidal action against PHBPU; assay type: in vivo, Pharbitis purpurea; details: dosage 80 g/ha
Method in brief: as §1

PHBPU [9] = experiment: Post-emergence herbicidal action against PHBPU; assay type: in vivo, Pharbitis purpurea; details: dosage 20 g/ha
Method in brief: as §2

ABUTH [10] = experiment: Post-emergence herbicidal action against ABUTH; assay type: in vivo, Abutilon theophrasti; details: visual assessment about 3 weeks after treatment vs untreated controls
Method in brief: as §2

ABUTH [11] = experiment: Pre-emergence herbicidal action against ABUTH; assay type: in vivo, Abutilon theophrasti
Method in brief: as §1

VIOTR [12] = experiment: Post-emergence herbicidal action against VIOTR; assay type: in vivo, Viola tricolor
Method in brief: as §2

ECHCG [13] = experiment: Post-emergence herbicidal action against ECHCG; assay type: in vivo, Echinochloa crus-galli
Method in brief: as §2

VIOTR [14] = experiment: Pre-emergence herbicidal action against VIOTR; assay type: in vivo, Viola tricolor
Method in brief: as §1

AMARE [15] = experiment: Pre-emergence herbicidal action against AMARE; assay type: in vivo, Amaranthus retroflexus
Method in brief: as §1

MATIN [16] = experiment: Post-emergence herbicidal action against MATIN; assay type: in vivo, Matricaria inodora; details: dosage 20 g/ha
Method in brief: as §2

SETVI [17] = experiment: Pre-emergence herbicidal action against SETVI; assay type: in vivo, Setaria viridis
Method in brief: as §1

VERPE [18] = experiment: Pre-emergence herbicidal action against VERPE; assay type: in vivo, Veronica persica
Method in brief: as §1

[19] = 20 g/ha, scored visually after 3 weeks, 100% = plants have died, 0% = like control plants
[20] = 80 g/ha, scored visually after 3 weeks vs untreated controls (100% = plants have died, 0% = like control plants)
[21] = Setaria viridis, 504 h, dosage 20 g/ha

CCc1c(C(=O)Nc2nnnn2C)ccc(C(F)(F)F)c1C(=O)NC(C)C1CC1 (centres unmarked) [Example 1-341]
Pre-emergence action against ALOMY (ALOMY [1]; [19]): 80%
Pre-emergence action against ALOMY (herbicidal activity) (ALOMY [1]; 80 g/ha, pre-emergence, scored visually after 3 weeks vs untreated controls (100% = plants have died, 0% = like control plants)): 90%
Pre-emergence action against AVEFA (AVEFA; [19]): 80%
Pre-emergence action against AVEFA in % (AVEFA; 80 g/ha, pre-emergence): 90%
Post-emergence action against VERPE in % (VERPE [2]; 5 g/ha): 80%
Post-emergence action against VERPE in % (VERPE [2]; 20 g/ha): 90%
Pre-emergence action against ECHCG in % (ECHCG [3]): 90%
Pre-emergence action against MATIN in % (MATIN [4]; dosage 20 g/ha): 100%
Pre-emergence action against MATIN in % (MATIN [4]; dosage 80 g/ha): 100%
Post-emergence action against ALOMY in % (ALOMY [5]): 80%
Post-emergence action against SETVI in % (SETVI [6]; dosage 20 g/ha): 80%
Pre-emergence action against POLCO in % (POLCO): 80%
Post-emergence action at 20 g/ha against AMARE in % (AMARE [7]): 100%
Pre-emergence action against PHBPU in % (PHBPU [8]): 80%
Post-emergence action against PHBPU in % (PHBPU [9]): 80%
Post-emergence action against ABUTH in % (ABUTH [10]; dosage 20 g/ha): 80%
Pre-emergence action against ABUTH (herbicidal activity) (ABUTH [11]; [20]): 100%
Pre-emergence action against ABUTH (herbicidal activity in percent) (ABUTH [11]; dosage 20 g/ha, scored visually after 3 weeks vs untreated controls, 100% = plants have died, 0% = like control plants): 100%
Post-emergence action against VIOTR in % (VIOTR [12]; 20 g/ha): 80%
Post-emergence action against ECHCG in % (ECHCG [13]; dosage 5 g/ha): 80%
Post-emergence action against ECHCG in % (ECHCG [13]; dosage 20 g/ha): 90%
Pre-emergence action against VIOTR in % (VIOTR [14]; dosage 20 g/ha): 100%
Pre-emergence action against VIOTR in % (VIOTR [14]; dosage 80 g/ha): 100%
Pre-emergence action against AMARE in % (AMARE [15]; 20 g/ha, scored visually after 3 weeks vs untreated controls, 100% = plants have died, 0% = like control plants): 100%
Pre-emergence action against AMARE in % (AMARE [15]; [20]): 100%
Post-emergence action against MATIN in % (MATIN [16]): 80%
Pre-emergence action against SETVI in % (SETVI [17]; dosage 20 g/ha): 80%
Pre-emergence action against SETVI in % (SETVI [17]; dosage 80 g/ha): 100%
Pre-emergence action against VERPE in % (VERPE [18]; dosage 20 g/ha): 80%
Pre-emergence action against VERPE in % (VERPE [18]; dosage 80 g/ha): 90%

CSc1c(C(=O)Nc2nnnn2C)ccc(C(F)F)c1C(=O)NC1CC1 [Example 1-89]
pest or weed control at 80 g/ha (ALOMY [1]; Alopecurus myosuroides, 504 h, 80 g/ha, pre-emergence, scored visually after 3 weeks vs untreated controls (100% = plants have died, 0% = like control plants)): 90%
pest or weed control at 80 g/ha (AVEFA; Avena fatua, 504 h, 80 g/ha, pre-emergence): 90%
pest or weed control at 5 g/ha (VERPE [2]; Veronica persica, 504 h, 5 g/ha): 90%
pest or weed control at 20 g/ha (VERPE [2]; Veronica persica, 504 h, 20 g/ha): 90%
pest or weed control at 80 g/ha (ECHCG [3]; Echinochloa crus-galli, 504 h): 100%
pest or weed control at 20 g/ha (MATIN [4]; Tripleurospermum inodorum, 504 h, dosage 20 g/ha): 90%
pest or weed control at 80 g/ha (MATIN [4]; Tripleurospermum inodorum, 504 h, dosage 80 g/ha): 100%
pest or weed control at 20 g/ha (ALOMY [5]; Alopecurus myosuroides, 504 h): 90%
pest or weed control at 5 g/ha (SETVI [6]; Setaria viridis, 504 h, dosage 5 g/ha): 90%
pest or weed control at 20 g/ha (SETVI [6]; [21]): 90%
pest or weed control at 80 g/ha (POLCO; Fallopia convolvulus, 504 h): 80%
pest or weed control at 20 g/ha (AMARE [7]; Amaranthus retroflexus, 504 h): 100%
pest or weed control at 80 g/ha (PHBPU [8]; Ipomoea purpurea, 504 h): 80%
pest or weed control at 5 g/ha (ABUTH [10]; Abutilon theophrasti, 504 h, dosage 5 g/ha): 90%
pest or weed control at 20 g/ha (ABUTH [10]; Abutilon theophrasti, 504 h, dosage 20 g/ha): 90%
pest or weed control at 80 g/ha (ABUTH [11]; Abutilon theophrasti, 504 h, 80 g/ha, scored visually after 3 weeks vs untreated controls (100% = plants have died, 0% = like control plants)): 100%
pest or weed control at 20 g/ha (ABUTH [11]; Abutilon theophrasti, 504 h, dosage 20 g/ha, scored visually after 3 weeks vs untreated controls, 100% = plants have died, 0% = like control plants, read-out: Pre-emergence action against ABUTH (herbicidal activity in percent)): 90%
pest or weed control at 5 g/ha (VIOTR [12]; Viola tricolor, 504 h, 5 g/ha): 90%
pest or weed control at 20 g/ha (VIOTR [12]; Viola tricolor, 504 h, 20 g/ha): 90%
pest or weed control at 80 g/ha (VIOTR [14]; Viola tricolor, 504 h, dosage 80 g/ha): 100%
pest or weed control at 20 g/ha (AMARE [15]; Amaranthus retroflexus, 504 h, 20 g/ha, scored visually after 3 weeks vs untreated controls, 100% = plants have died, 0% = like control plants): 100%
pest or weed control at 80 g/ha (AMARE [15]; Amaranthus retroflexus, 504 h, 80 g/ha, scored visually after 3 weeks vs untreated controls, 100% = plants have died, 0% = like control plants): 100%
pest or weed control at 20 g/ha (MATIN [16]; Tripleurospermum inodorum, 504 h): 80%
pest or weed control at 20 g/ha (SETVI [17]; [21]): 90%
pest or weed control at 80 g/ha (SETVI [17]; Setaria viridis, 504 h, dosage 80 g/ha): 100%
pest or weed control at 80 g/ha (VERPE [18]; Veronica persica, 504 h, dosage 80 g/ha): 90%
